In patent publication US9029370B2, “Substituted benzamide derivatives” (Hoffmann-La Roche Inc., priority 2011, dated 2015):
Where a name gives a salt, the structure may show the parent alone.

What was measured:
mouse TAAR1 = mouse TAAR1 (Mus musculus (Mouse), UniProt Q923Y8); test: Radioligand binding assay on mouse TAAR1; settings: mouse TAAR1, HEK-293 membranes; first value of the pair (before the slash); read-out: Ki (μM) mouse/rat
Method in brief: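 Membranes from HEK293 cells stably expressing mouse TAAR1, in HEPES-NaOH pH 7.4 with 0.1 mM EDTA, were incubated 1 h at 4°C with tritiated (S)-4-[(ethyl-phenyl-amino)-methyl]-4,5-dihydro-oxazol-2-ylamine and compound (10 pM–10 μM, duplicates). Nonspecific binding defined with 10 μM unlabeled ligand; bound radioactivity by filtration and scintillation counting.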

rat TAAR1 = rat TAAR1 (Rattus norvegicus (Rat), UniProt Q923Y9); test: Radioligand binding assay on rat TAAR1; settings: rat TAAR1, HEK-293 membranes; second value of the pair (line below); read-out: Ki (μM) mouse/rat
Method in brief: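 Membranes from HEK293 cells stably expressing rat TAAR1 were incubated 1 hr at 4 °C with ^3[H]-(S)-4-[(ethyl-phenyl-amino)-methyl]-4,5-dihydro-oxazol-2-ylamine; nonspecific binding was defined with 10 μM unlabeled ligand. Compounds were tested at 10 pM to 10 μM in duplicate. Bound radioactivity was read by filtration and scintillation counting.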

mouse TAAR1, sequence (Q923Y8 whole entry): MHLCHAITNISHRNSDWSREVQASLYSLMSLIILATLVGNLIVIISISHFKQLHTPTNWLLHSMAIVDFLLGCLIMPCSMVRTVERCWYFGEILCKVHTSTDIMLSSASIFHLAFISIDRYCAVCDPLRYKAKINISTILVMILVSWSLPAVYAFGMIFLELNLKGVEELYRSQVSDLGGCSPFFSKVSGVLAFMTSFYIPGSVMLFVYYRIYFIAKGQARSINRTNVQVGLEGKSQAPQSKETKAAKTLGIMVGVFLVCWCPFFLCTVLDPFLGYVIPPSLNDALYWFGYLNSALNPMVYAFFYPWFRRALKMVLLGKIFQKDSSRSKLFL
rat TAAR1, sequence (Q923Y9 whole entry): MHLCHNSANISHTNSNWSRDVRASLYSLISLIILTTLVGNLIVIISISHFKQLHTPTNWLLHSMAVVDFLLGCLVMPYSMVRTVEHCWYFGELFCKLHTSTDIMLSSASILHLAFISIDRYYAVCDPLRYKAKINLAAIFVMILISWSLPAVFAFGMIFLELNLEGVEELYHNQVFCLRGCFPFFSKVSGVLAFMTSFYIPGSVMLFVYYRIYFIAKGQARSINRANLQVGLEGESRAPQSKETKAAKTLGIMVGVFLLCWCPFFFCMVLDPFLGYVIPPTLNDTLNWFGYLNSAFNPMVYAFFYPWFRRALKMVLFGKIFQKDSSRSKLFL

Row | SMILES | Ki (mouse TAAR1) [µM] | Ki (rat TAAR1) [µM]
1 | O=C(Nc1ccc(C(F)(F)F)nc1)Nc1ccc([C@H]2CNCCO2)cc1F [Example 11, 1-((S)-2-Fluoro-4-morpholin-2-yl-phenyl)-3-(6-trifluoromethyl-pyridin-3-yl)-urea] | 0.0035 | 0.0095
2 | CCOc1cc(C(=O)Nc2ccc([C@@H]3CNCCO3)c(F)c2)ccn1 [Example 84, (R)-2-Ethoxy-N-(3-fluoro-4-(morpholin-2-yl)phenyl)isonicotinamide hydrochloride] | 0.0036 | 0.0047
3 | N#Cc1ccc(OC(F)F)c(NC(=O)Nc2ccc([C@H]3CNCCO3)cc2Cl)c1 [Example 48, (S)-1-(2-Chloro-4-(morpholin-2-yl)phenyl)-3-(5-cyano-2-(difluoromethoxy)phenyl)urea] | 0.0022 | 0.0018
4 | CCc1cc(C(=O)Nc2ccc([C@H]3CNCCO3)c(F)c2)cc(C(N)=O)n1 [Example 117, (S)-6-Ethyl-N4-(3-fluoro-4-(morpholin-2-yl)phenyl)pyridine-2,4-dicarboxamide hydrochloride] | 0.0284 | 0.045
5 | COc1cc(C(=O)Nc2ccc([C@@H]3CNCCO3)cc2F)cc(Cl)n1 [Example 24, 2-Chloro-N—((R)-2-fluoro-4-morpholin-2-yl-phenyl)-6-methoxy-isonicotinamide] | 0.0032 | 0.007
6 | O=C(Nc1ccc([C@H]2CNCCO2)c(F)c1)c1cnn(-c2cc(C(F)(F)F)ncn2)c1 [Example 129, (S)—N-(3-Fluoro-4-(morpholin-2-yl)phenyl)-1-(6-(trifluoromethyl)pyrimidin-4-yl)-1H-pyrazole-4-carboxamide hydrochloride] | 0.0073 | 0.0025
7 | Cc1cc(C(=O)Nc2ccc([C@H]3CNCCO3)c(F)c2)cc(C(N)=O)n1 [Example 114, (S)—N4-(3-Fluoro-4-(morpholin-2-yl)phenyl)-6-methylpyridine-2,4-dicarboxamide hydrochloride] | 0.0649 | 0.265
8 | CCOc1ccc(C(=O)Nc2ccc([C@@H]3CNCCO3)c(Cl)c2)cn1 [Example 92, (R)—N-(3-Chloro-4-(morpholin-2-yl)phenyl)-6-ethoxynicotinamide hydrochloride] | 0.0048 | 0.0045
9 | Cc1cc([C@@H]2CNCCO2)ccc1NC(=O)Nc1ccc(Cl)nc1 [Example 40, (R)-1-(6-Chloropyridin-3-yl)-3-(2-methyl-4-(morpholin-2-yl)phenyl)urea] | 0.0043 | 0.12
10 | N#Cc1ccc(-n2cc(C(=O)Nc3ccc([C@H]4CNCCO4)c(F)c3)cn2)c(F)c1 [Example 108, (S)-1-(4-Cyano-2-fluorophenyl)-N-(3-fluoro-4-(morpholin-2-yl)phenyl)-1H-pyrazole-4-carboxamide hydrochloride] | 0.0054 | 0.0059
11 | O=C(Nc1ccc([C@@H]2CNCCO2)cc1F)c1ccn(-c2ccc(F)cc2)n1 [Example 12, 1-(4-Fluoro-phenyl)-1H-pyrazole-3-carboxylic acid ((R)-2-fluoro-4-morpholin-2-yl-phenyl)-amide] | 0.0026 | 0.0006
12 | O=C(Nc1ccc([C@@H]2CNCCO2)cc1Cl)c1ccc(Cl)nc1 [Example 35, (R)-6-Chloro-N-(2-chloro-4-(morpholin-2-yl)phenyl)nicotinamide] | 0.0082 | 0.111
13 | O=C(Nc1ccc(Cl)nc1)Nc1ccc(C2CCNC2)cc1Cl (racemic) [Example 38, (RS)-1-(6-Chloro-pyridin-3-yl)-3-(2-chloro-4-pyrrolidin-3-yl-phenyl)-urea] | 0.0029 | 0.0191
14 | O=C(Nc1cnc(C(F)(F)F)nc1)Nc1ccc([C@@H]2CNCCO2)cc1Cl [Example 52, 1-((R)-2-Chloro-4-morpholin-2-yl-phenyl)-3-(2-trifluoromethyl-pyrimidin-5-yl)-urea] | 0.0049 | 0.0058
15 | Cc1cc(C(=O)Nc2ccc([C@H]3CNCCO3)c(Cl)c2)cc(C#N)n1 [Example 112, (S)—N-(3-Chloro-4-(morpholin-2-yl)phenyl)-2-cyano-6-methylisonicotinamide hydrochloride] | 0.0259 | 0.0248
16 | CCOc1ccc(C(=O)Nc2ccc([C@H]3CNCCO3)c(F)c2)cn1 [Example 89, (S)-6-Ethoxy-N-(3-fluoro-4-(morpholin-2-yl)phenyl)nicotinamide hydrochloride] | 0.0024 | 0.0254
17 | O=C(Nc1cnc(C(F)(F)F)nc1)Nc1ccc([C@H]2CNCCO2)cc1Cl [Example 51] | 0.0067 | 0.0126
18 | O=C(NCc1cccc(OC(F)F)c1)Nc1ccc([C@H]2CNCCO2)cc1F [Example 78, (S)-1-(3-(Difluoromethoxy)benzyl)-3-(2-fluoro-4-(morpholin-2-yl)phenyl)urea] | 0.0012 | 0.0039

Row | SMILES | Ki (mouse TAAR1) [µM] | Ki (rat TAAR1) [µM]
19 | N#Cc1cccc(NC(=O)Nc2ccc([C@@H]3CNCCO3)cc2F)c1 [Example 3, 1-(3-Cyano-phenyl)-3-((R)-2-fluoro-4-morpholin-2-yl-phenyl)-urea] | 0.0016 | 0.0015
20 | O=C(Nc1ccc([C@H]2CNCCO2)cc1F)c1n[nH]c2cc(F)ccc12 [Example 2, 6-Fluoro-1H-indazole-3-carboxylic acid ((S)-2-fluoro-4-morpholin-2-yl-phenyl)-amide] | 0.0012 | 0.0009
21 | N#Cc1ccc(NC(=O)Nc2ccc([C@H]3CNCCO3)cc2Br)cn1 [Example 66, (S)-1-(2-bromo-4-(morpholin-2-yl)phenyl)-3-(6-cyanopyridin-3-yl)urea] | 0.0033 | 0.0161
22 | N#Cc1ccc(-n2cc(C(=O)Nc3ccc([C@H]4CNCCO4)cc3F)cn2)cc1 [Example 111, (S)-1-(4-Cyanophenyl)-N-(2-fluoro-4-(morpholin-2-yl)phenyl)-1H-pyrazole-4-carboxamide hydrochloride] | 0.0074 | 0.0086
23 | O=C(NCc1cccc(OC(F)F)c1)Nc1ccc([C@@H]2CNCCO2)cc1F [Example 77, (R)-1-(3-(Difluoromethoxy)benzyl)-3-(2-fluoro-4-(morpholin-2-yl)phenyl)urea] | 0.001 | 0.0064
24 | N#Cc1ccc(OC(F)F)c(NC(=O)Nc2ccc([C@@H]3CNCCO3)cc2F)c1 [Example 72, 1-(5-Cyano-2-difluoromethoxy-phenyl)-3-((R)-2-fluoro-4-morpholin-2-yl-phenyl)-urea hydrochloride] | 0.0019 | 0.001
25 | O=C(Nc1ccc([C@H]2CNCCO2)cc1Cl)c1ccc(Cl)nc1 [Example 36, (S)-6-Chloro-N-(2-chloro-4-(morpholin-2-yl)phenyl)nicotinamide] | 0.0139 | 0.488
26 | N#Cc1ccc(-n2cc(C(=O)Nc3ccc([C@H]4CNCCO4)cc3F)cn2)c(F)c1 [Example 110, (S)-1-(4-Cyano-2-fluorophenyl)-N-(2-fluoro-4-(morpholin-2-yl)phenyl)-1H-pyrazole-4-carboxamide hydrochloride] | 0.0088 | 0.0152
27 | COc1cc(C(=O)Nc2ccc([C@H]3CNCCO3)cc2F)cc(Cl)n1 [Example 25, 2-Chloro-N—((S)-2-fluoro-4-morpholin-2-yl-phenyl)-6-methoxy-isonicotinamide] | 0.0034 | 0.0127
28 | Cc1cc(C(=O)Nc2ccc([C@H]3CNCCO3)cc2Cl)cc(C(N)=O)n1 [Example 122, (S)—N4-(2-Chloro-4-(morpholin-2-yl)phenyl)-6-methylpyridine-2,4-dicarboxamide hydrochloride] | 0.14 | 0.758
29 | COc1ccc(C#N)cc1NC(=O)Nc1ccc([C@@H]2CNCCO2)cc1Br [Example 57, 1-((R)-2-Bromo-4-morpholin-2-yl-phenyl)-3-(5-cyano-2-methoxy-phenyl)-urea] | 0.0039 | 0.0127
30 | N#Cc1cc(Cl)cc(C(=O)Nc2ccc([C@H]3CNCCO3)c(F)c2)n1 [Example 133, (S)-4-Chloro-6-cyano-N-(3-fluoro-4-(morpholin-2-yl)phenyl)picolinamide hydrochloride] | 0.0095 | 0.018
31 | N#Cc1cccc(CNC(=O)Nc2ccc([C@@H]3CNCCO3)cc2F)c1 [Example 15, 1-(3-Cyano-benzyl)-3-((R)-2-fluoro-4-morpholin-2-yl-phenyl)-urea] | 0.0074 | 0.0544
32 | O=C(Nc1ccc([C@H]2CNCCO2)cc1Cl)c1ccc(Cl)cc1 [Example 34, (S)-4-Chloro-N-(2-chloro-4-(morpholin-2-yl)phenyl)benzamide] | 0.0024 | 0.0229
33 | O=C(Nc1ccc([C@H]2CNCCO2)cc1F)c1cn(-c2ccc(OC(F)F)cc2)nn1 [Example 104, (S)-1-(4-(Difluoromethoxy)phenyl)-N-(2-fluoro-4-(morpholin-2-yl)phenyl)-1H-1,2,3-triazole-4-carboxamide] | 0.0019 | 0.034
34 | N#Cc1ccc(OC(F)F)c(NC(=O)Nc2ccc([C@H]3CNCCO3)cc2F)c1 [Example 71, 1-(5-Cyano-2-difluoromethoxy-phenyl)-3-((S)-2-fluoro-4-morpholin-2-yl-phenyl)-urea hydrochloride] | 0.0018 | 0.0012
35 | N#Cc1cc(F)cc(NC(=O)Nc2ccc([C@@H]3CNCCO3)cc2F)c1 [Example 59, 1-(3-Cyano-5-fluoro-phenyl)-3-((R)-2-fluoro-4-morpholin-2-yl-phenyl)-urea] | 0.0018 | 0.001
36 | CCOc1cc(C(=O)Nc2ccc([C@H]3CNCCO3)c(F)c2)ccn1 [Example 88, (S)-2-Ethoxy-N-(3-fluoro-4-(morpholin-2-yl)phenyl)isonicotinamide hydrochloride] | 0.0034 | 0.0458
